# Results reported in patent publication US10028507B2, “Sixteen-membered macrolide compound and applications thereof” (Zhejiang Hisun Pharmaceutical Co., Ltd., priority 2014, dated 2018).
# Read-outs that look alike come from different tables or passages of the source.
# Experiments:
# [1] = tested on: Bursaphelenchus xylophilus; assay: whole plant or invertebrate
# Procedure: Bursaphelenchus xylophilus is the pathogen of pine wilt disease, which results in the death of a great number of pines in the south of China. The laboratory activities of sixteen-membered macrolide compounds, including tenvermectin, avermectin, ivermectin, milbemycin, and emamectin benzoate etc, were tested using Bursaphelenchus xylophilus as the test pest, in order to compare the difference of activities among these reagents on Bursaphelenchus xylophilus.
# Test reagents: 5 reagents, including 0.5% avermectin emulsifiable concentrate, 0.5% tenvermectin emulsifiable concentrate, 0.5% ivermectin emulsifiable concentrate, 2% milbemycin emulsifiable concentrate, and 2.5% emamectin benzoate microemulsion.
# Experiment method: Dipping method was employed. For each reagent, 5 concentrations were tested, including 2, 5, 10, 20, and 50 mg/L. For each concentration, there were 3 repeats. The results were statistically analyzed at 24 h.
# [2] = tested on: Bursaphelenchus xylophilus; assay: Activity of tenvermectin A/B of different ratios on Bursaphelenchus xylophilus; assay type: in vivo; conditions: for LC50: in vivo
# Procedure: The activity of the mixture of tenvermectin A and tenvermectin B with different ratios was tested using Bursaphelenchus xylophilus as the test pest, in order to provide reference for modification and fermentation process of tenvermectin-producing bacteria.
# Tetranychus cinnabarinus = assay: Laboratory activity assay on Tetranychus cinnabarinus, leaf disc dipping method; assay type: in vivo; conditions: foliar
# Procedure: (1) Laboratory activity assay of tenvermectin on Tetranychus cinnabarinus: the laboratory activity of tenvermectin was tested using Tetranychus cinnabarinus as the test pest, and using avermectin as the positive control. The activities were compared between tenvermectin and avermectin.
# Test organism: Tetranychus cinnabarinus: it was inoculated to horsebean seedling and cultured under the conditions of artificial climate [(26±1)° C., RH (70±5)%, H/D14].
# Test reagents: 96% (w/w) avermectin, 98% (w/w) tenvermectin (TEVA:TEVB=8:2): 1 g 96% avermectin and 98% tenvermectin were weighed and added to a beaker respectively, into which 93 g methanol and 6 g surfactant nonylphenol polyoxyethylene ether were added to give a preparation at a concentration of 10000 mg/L. The preparation was diluted with water into a series of concentrations: 0.005, 0.01, 0.025, and 0.05 mg/L for test.
# Experiment method: leaf disc dipping method was employed: adult mites that were raised in laboratory with consistent physiological state were selected. The horsebean leaves with consistent growth condition were selected. 2 cm leaf-discs were prepared using a puncher. The leaf-disc was placed on absorbent cotton in the center of a plastic dish with the back of blade upwards. […] The number of adult mites was counted under a stereomicroscope 2 h later, and the number should not be less than 20 on each leaf disc in the dish. […]
# citrus spider mite = assay: Prevention and control effect on citrus spider mite in field; assay type: in vivo, Panonychus citri McGregor; set-up: Amount of mites: unit not given here
# Procedure: Citrus spider mite (i.e., Panonychus citri McGregor) is one of the primary insect pests for citrus. It has properties, such as small body, fast propagation and multiple generations, which will cause severe damage to citrus. Tenvermectin was prepared as 2% water dispersible granules for the test of prevention and control of citrus spider mite, so as to determine its effect in field.
# Test reagents: 2% tenvermectin water dispersible granules (tenvermectin, ethanol and alkylphenol polyoxyethylene ether-formaldehyde condensate in a mass ratio of […]), and 2% avermectin emulsifiable concentrate
# Experiment time: in early May, at the young fruit stage of citrus.
# Experiment design: the reagents were diluted 2000-, 4000- and 8000-fold, to concentrations of 10 mg/L, 5 mg/L and 2.5 mg/L, respectively. For each concentration, there were 3 repeats. 10 citrus trees were comprised in one small area that was randomly arranged. Water was used as the control, in which 10 citrus trees were tested. 50 kg of reagent was sprayed for each concentration. The reagent was administrated on a sunny day with no rain in following 24 h.
# Data analysis: in each small area, 5 trees were examined. For each tree, 2 branches, each located in the east, the south, the west, the north and the center of the tree, were investigated. For each branch, the amount of live mites was counted for total 5 leaves. The amount of live mites was counted before administration and on day 3, 5, 7 and 14 after administration respectively, to calculate the reduction rate of the mite population. The prevention and control effect in field was determined based on the result.
# [3] = 2 mg/L, 24 h, dipping, reagents applied as emulsifiable concentrate/microemulsion
# [4] = Bursaphelenchus xylophilus, 24 h, read-out: Mortality at different concentrations
# [5] = 2.5 mg/L, 3 d after administration, field spray
# [6] = 2.5 mg/L, 5 d after administration
# [7] = 2.5 mg/L, 7 d after administration
# [8] = 2.5 mg/L, 14 d after administration
# [9] = 5.0 mg/L, 3 d after administration
# [10] = 5.0 mg/L, 5 d after administration
# [11] = 5.0 mg/L, 7 d after administration
# [12] = 5.0 mg/L, 14 d after administration
# [13] = 10.0 mg/L, 3 d after administration
# [14] = 10.0 mg/L, 5 d after administration
# [15] = 10.0 mg/L, 7 d after administration
# [16] = 10.0 mg/L, 14 d after administration
molecule,measurement,setting,value
emamectin benzoate,Mortality at different concentrations,[1]; [3],48.27%
same,Mortality at different concentrations,"[1]; 5 mg/L, 24 h, dipping",61.68%
same,Mortality at different concentrations,"[1]; 10 mg/L, 24 h, dipping",67.44%
same,Mortality at different concentrations,"[1]; 20 mg/L, 24 h, dipping",75%
same,Mortality at different concentrations,"[1]; 50 mg/L, 24 h, dipping",86.67%
same,LC50,"[1]; 24 h, dipping",2.8055 µg/mL
tenvermectin B,LC50,[2],3.4816 µg/mL
same,relative activity of tenvermectin A/B ratios on Bursaphelenchus xylophilus,[2]; in words,higher than that of tenvermectin A
tenvermectin A,LC50,[2],6.592 µg/mL
CC[C@H](C)[C@H]1O[C@]2(C=C[C@@H]1C)C[C@@H]1C[C@@H](C/C=C(\C)[C@@H](O[C@H]3C[C@H](OC)[C@@H](O[C@H]4C[C@H](OC)[C@@H](O)[C@H](C)O4)[C@H](C)O3)[C@@H](C)/C=C/C=C3\CO[C@@H]4[C@H](O)C(C)=C[C@@H](C(=O)O1)[C@]34O)O2 [avermectin],LC50,Tetranychus cinnabarinus; 24 h,0.0083 µg/mL
same,LC50,Tetranychus cinnabarinus; read-out: LC50 on Tetranychus cinnabarinus,0.0083 µg/mL
same,LC50,"[1]; Bursaphelenchus xylophilus, 24 h",5.35 µg/mL
same,mortality at 2 µg/mL,[1]; [4],43.2%
same,mortality at 5 µg/mL,[1]; [4],46.1%
same,mortality at 10 µg/mL,[1]; [4],63.1%
same,mortality at 20 µg/mL,[1]; [4],66.9%
same,mortality at 50 µg/mL,[1]; [4],78%
same,Amount of mites,citrus spider mite; [5],2.0
same,Effect,citrus spider mite; [5],80.5c
same,Amount of mites,citrus spider mite; [6],1.5
same,Effect,citrus spider mite; [6],86.7b
same,Amount of mites,citrus spider mite; [7],1.8
same,Effect,citrus spider mite; [7],87.3c
same,Amount of mites,citrus spider mite; [8],1.9
same,Effect,citrus spider mite; [8],80.1b
same,Amount of mites,citrus spider mite; [9],0.4
same,Effect,citrus spider mite; [9],91.2ab
same,Amount of mites,citrus spider mite; [10],1.0
same,Effect,citrus spider mite; [10],87.3b
same,Amount of mites,citrus spider mite; [11],1.3
same,Effect,citrus spider mite; [11],88.1c
same,Amount of mites,citrus spider mite; [12],1.4
same,Effect,citrus spider mite; [12],80.4b
same,Amount of mites,citrus spider mite; [13],1.4
same,Effect,citrus spider mite; [13],81.6c
same,Amount of mites,citrus spider mite; [14],1.1
same,Effect,citrus spider mite; [14],90.6b
same,Amount of mites,citrus spider mite; [15],0.7
same,Effect,citrus spider mite; [15],95.5c
same,Amount of mites,citrus spider mite; [16],5.3
same,Effect,citrus spider mite; [16],83.0b
milbemycin,LC50,[1]; in vivo,5.0123 µg/mL
ivermectin,Mortality at different concentrations,[1]; [3],18.52%
same,Mortality at different concentrations,"[1]; 5 mg/L, 24 h, dipping",42.55%
same,Mortality at different concentrations,"[1]; 10 mg/L, 24 h, dipping",57.47%
same,Mortality at different concentrations,"[1]; 20 mg/L, 24 h, dipping",58.33%
same,Mortality at different concentrations,"[1]; 50 mg/L, 24 h, dipping",78.94%
same,LC50,"[1]; 24 h, dipping",11.0629 µg/mL
